Assay results reported in publication PMC2713373 (Biochemistry, 2009).

Target: MtmOIV (Streptomyces argillaceus, UniProt Q194P4)
Test: X-ray crystal structure, […] Å
Format: binding
Settings: non-covalently bound, IN conformation

`Cc1cc2nc3c(=O)[nH]c(=O)nc-3n(C[C@H](O)[C@H](O)[C@H](O)COP(=O)(O)OP(=O)(O)OC[C@H]3O[C@@H](n4cnc5c(N)ncnc54)[C@H](O)[C@@H]3O)c2cc1C` [FAD] was tested, and the “X-ray crystal structure, 2.9 Å” value was “The FAD cofactor was found non-covalently bound in the crystal structure”.
